Test results as given in patent publication US20260285850A1, “SUBSTITUTED OXAZOLIDINONES AND IMIDAZOLINONES AS HERBICIDES” (FMC CORPORATION, priority 2023, published 2026).

Experiments:
Format in all cases: in vivo
corn (Zea mays) [1] = assay: Test A postemergence application, visual injury rating 0-100; conditions: 10 days
In short: (§1)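 Grow plants in loam soil blended with sand. Apply formulated compound (non-phytotoxic solvent, surfactant) as a directed soil spray before emergence, or to plants at the one- to two-leaf stage after emergence. Hold in greenhouse 10 days, then rate injury visually versus untreated controls on a 0-100 scale.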

[2] = system: barnyardgrass (Echinochloa crus-galli); assay: as above; conditions: 10 days
In short: as §1

[3] = system: galium (catchweed bedstraw, Galium aparine); assay: as above; conditions: 10 days
In short: as §1

[4] = system: oat, wild (wild oat, Avena fatua); assay: as above; conditions: 10 days
In short: as §1

kochia (Bassia scoparia) [5] = assay: as above; conditions: 10 days
In short: as §1

soybean (Glycine max) [6] = assay: as above; conditions: 10 days
In short: as §1

[7] = system: palmer (palmer amaranth, palmer pigweed, Amaranthus palmeri); assay: as above; conditions: 10 days
In short: as §1

[8] = system: green foxtail (Setaria viridis); assay: as above; conditions: 10 days
In short: as §1

[9] = system: ragweed (common ragweed, Ambrosia artemisiifolia); assay: as above; conditions: 10 days
In short: as §1

[10] = system: wheat (Triticum aestivum); assay: as above; conditions: 10 days
In short: as §1

[11] = system: horseweed (Erigeron canadensis); assay: as above; conditions: 10 days
In short: as §1

[12] = system: blackgrass (Alopecurus myosuroides); assay: as above; conditions: 10 days
In short: as §1

[13] = system: ryegrass, Italian (italian ryegrass, Lolium multiflorum); assay: as above; conditions: 10 days
In short: as §1

corn (Zea mays) [14] = assay: Test A preemergence soil spray, visual injury rating 0-100; conditions: 10 days, 0 = no effect, 100 = complete control
In short: as §1

[15] = system: barnyardgrass (Echinochloa crus-galli); assay: as above; conditions: 10 days, 0 = no effect, 100 = complete control
In short: as §1

[16] = system: oat, wild (wild oat, Avena fatua); assay: as above; conditions: 10 days, 0 = no effect, 100 = complete control
In short: as §1

kochia (Bassia scoparia) [17] = assay: as above; conditions: 10 days, 0 = no effect, 100 = complete control
In short: as §1

soybean (Glycine max) [18] = assay: as above; conditions: 10 days, 0 = no effect, 100 = complete control
In short: as §1

[19] = system: palmer (palmer amaranth, palmer pigweed, Amaranthus palmeri); assay: as above; conditions: 10 days, 0 = no effect, 100 = complete control
In short: as §1

[20] = system: green foxtail (Setaria viridis); assay: as above; conditions: 10 days, 0 = no effect, 100 = complete control
In short: as §1

[21] = system: ragweed (common ragweed, Ambrosia artemisiifolia); assay: as above; conditions: 10 days, 0 = no effect, 100 = complete control
In short: as §1

[22] = system: wheat (Triticum aestivum); assay: as above; conditions: 10 days, 0 = no effect, 100 = complete control
In short: as §1

[23] = system: blackgrass (Alopecurus myosuroides); assay: as above; conditions: 10 days, 0 = no effect, 100 = complete control
In short: as §1

rice (Oryza sativa) = assay: Test B flooded paddy test, visual plant response rating 0-100; conditions: 250 g ai/ha, Flood, applied to paddy water, evaluated after 13 days
In short: (§2)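 Visual scores versus untreated controls were recorded 13 days after treatment of greenhouse-held plants. At the 2-leaf stage, pots were flooded 3 cm above the soil surface and compounds added straight to the water.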

[24] = system: sedge, umbrella (small-flower umbrella sedge, Cyperus difformis); assay: as above; conditions: 250 g ai/ha, Flood, applied to paddy water, evaluated after 13 days
In short: as §2

[25] = system: ducksalad (Heteranthera limosa); assay: as above; conditions: 250 g ai/ha, Flood, applied to paddy water, evaluated after 13 days
In short: as §2

[26] = system: barnyardgrass (Echinochloa crusgalli); assay: as above; conditions: 250 g ai/ha, Flood, applied to paddy water, evaluated after 13 days
In short: as §2

[27] = 31 g ai/ha, postemergence, 0 = no effect, 100 = complete control
[28] = Postemergence, 125 g ai/ha, 0 is no effect, 100 is complete control

For CC1(C(=O)NC2CCC(C(=O)O)C2)CN(c2cc(F)cc(Cl)c2)C(=O)O1 (centres unmarked) [Compound 7], the “Corn plant response rating (0-100)” value (corn (Zea mays) [1]; [27]) was 90, the “Corn plant response rating (0 to 100 scale)” value (corn (Zea mays) [1]; [28]) was 100 and the “Barnyardgrass plant response rating (0-100)” value [2, 27] was 100. For the same compound, the “Barnyardgrass plant response rating (0 to 100 scale)” value [2, 28] was 100, the “Galium plant response rating (0-100)” value [3, 27] was 80 and the “Galium plant response rating (0 to 100 scale)” value [3, 28] was 80. The “Oat, Wild plant response rating (0-100)” value [4, 27] was 90, the “Oat, Wild plant response rating (0 to 100 scale)” value [4, 28] was 100 and the “Kochia plant response rating (0-100)” value (kochia (Bassia scoparia) [5]; [27]) was 70. The “Kochia plant response rating (0 to 100 scale)” value (kochia (Bassia scoparia) [5]; [28]) was 80, the “Soybean plant response rating (0-100)” value (soybean (Glycine max) [6]; [27]) was 50 and the “Soybean plant response rating (0 to 100 scale)” value (soybean (Glycine max) [6]; [28]) was 60. For the same compound, the “Amaranth, Palmer plant response rating (0-100)” value [7, 27] was 50, the “Amaranth, Palmer / Pigweed, Palmer plant response rating (0 to 100 scale)” value [7, 28] was 80 and the “Foxtail, Green plant response rating (0-100)” value [8, 27] was 50. For the same compound, the “Foxtail, Green plant response rating (0 to 100 scale)” value [8, 28] was 90, the “Ragweed plant response rating (0-100)” value [9, 27] was 0 and the “Ragweed plant response rating (0 to 100 scale)” value [9, 28] was 20. The “Wheat plant response rating (0-100)” value [10, 27] was 90, the “Wheat plant response rating (0 to 100 scale)” value [10, 28] was 90 and the “Horseweed plant response rating (0-100)” value [11, 27] was 0. The “Horseweed plant response rating (0 to 100 scale)” value [11, 28] was 40, the “Blackgrass plant response rating (0-100)” value [12, 27] was 60 and the “Blackgrass plant response rating (0 to 100 scale)” value [12, 28] was 70. The “Ryegrass, Italian plant response rating (0-100)” value [13, 27] was 80, the “Ryegrass, Italian plant response rating (0 to 100 scale)” value [13, 28] was 90 and the “Corn plant response rating (0-100)” value (corn (Zea mays) [14]; 31 g ai/ha) was 0. For the same compound, the “Corn plant response rating (0 to 100 scale)” value (corn (Zea mays) [14]; 125 g ai/ha) was 80, the “Barnyardgrass plant response rating (0-100)” value ([15]; 31 g ai/ha) was 0 and the “Barnyardgrass plant response rating (0 to 100 scale)” value ([15]; 125 g ai/ha) was 90. The “Oat, Wild plant response rating (0-100)” value ([16]; 31 g ai/ha) was 20, the “Oat, Wild plant response rating (0 to 100 scale)” value ([16]; 125 g ai/ha) was 70 and the “Kochia plant response rating (0-100)” value (kochia (Bassia scoparia) [17]; 31 g ai/ha) was 0. For the same compound, the “Kochia plant response rating (0 to 100 scale)” value (kochia (Bassia scoparia) [17]; 125 g ai/ha) was 80, the “Soybean plant response rating (0-100)” value (soybean (Glycine max) [18]; 31 g ai/ha) was 20 and the “Soybean plant response rating (0 to 100 scale)” value (soybean (Glycine max) [18]; 125 g ai/ha) was 60. The “Amaranth, Palmer plant response rating (0-100)” value ([19]; 31 g ai/ha) was 0, the “Amaranth, Palmer plant response rating (0 to 100 scale)” value ([19]; 125 g ai/ha) was 90 and the “Foxtail, Green plant response rating (0-100)” value ([20]; 31 g ai/ha) was 20. The “Foxtail, Green plant response rating (0 to 100 scale)” value ([20]; 125 g ai/ha) was 100, the “Ragweed plant response rating (0-100)” value ([21]; 31 g ai/ha) was 0 and the “Ragweed plant response rating (0 to 100 scale)” value ([21]; 125 g ai/ha) was 0. The “Wheat plant response rating (0-100)” value ([22]; 31 g ai/ha) was 90, the “Wheat plant response rating (0 to 100 scale)” value ([22]; 125 g ai/ha) was 90 and the “Blackgrass plant response rating (0-100)” value ([23]; 31 g ai/ha) was 20. The “Blackgrass plant response rating (0 to 100 scale)” value ([23]; 125 g ai/ha) was 70, the “Plant response rating, Rice (0 to 100 scale, 0 is no effect and 100 is complete control)” value (rice (Oryza sativa)) was 25 and the “Plant response rating, Sedge, Umbrella (0 to 100 scale, 0 is no effect and 100 is complete control)” value [24] was 90. For the same compound, the “Plant response rating, Ducksalad (0 to 100 scale, 0 is no effect and 100 is complete control)” value [25] was 60 and the “Plant response rating, Barnyardgrass (0 to 100 scale, 0 is no effect and 100 is complete control)” value [26] was 60.
